How the values were obtained:
[1] = test system: transgenic A30P α-synuclein C. elegans; test: Coiler score and locomotion of C. elegans expressing A30P α-synuclein in dopaminergic neurons; format: in vivo, Caenorhabditis elegans
Experimental: Using high-resolution, multi-worm tracking with custom image processing, methods were developed for semi-automated and blinded scoring of circularity for a population of simultaneously recorded animals (n=10 per recording). A coiler score was determined for the population tested by first calculating the circularity value for each animal in each frame of video and then calculating the proportion of circularity values >0.6. […] The coiler phenotype is an abnormal motor behaviour previously reported for several unc C. elegans strains with mutations affecting neuronal function.
Animals were synchronized by isolating eggs using alkaline hypochlorite treatment and hatching overnight. Larvae were plated onto NGM agar plates with OP50 and grown for 4 days before recording locomotion. For individual C. elegans recordings, a single adult animal was randomly picked, washed for 1 to 2 minutes in M9 buffer, and then transferred to a fresh NGM plate without food for imaging. Video images were acquired (2 frames per second) for up to 6 minutes using a sCMOS camera (pco.edge, PCO) mounted on a stereomicroscope (Olympus MVX10 MacroView) controlled using the μManager software.^55 A total of 40 individual animals were imaged for each strain. For C. elegans population recordings, ten adult animals were randomly removed using an eyelash pick, washed for 1 minute in M9 buffer, and then transferred to a fresh NGM plate without food, with a ring of copper sulfate solution (150 mM) around the area of recording (a chemorepellent to keep the animals in the recording frame). Exploratory locomotion was recorded using a CCD camera (GX1920, Allied Vision) which was attached to a dissecting stereomicroscope (Leica M165C, 1.0× PlanApo lens). A Labview program captured video (2 frames per second) at 1936×1456 resolution. Using ImageJ, the displacement, perimeter, and area of each animal was calculated, from which a circularity value was computed using the following formula: circularity=4π(A/P^2), where A is the area of the animal's body and P is the perimeter of the animal's body (both expressed in arbitrary pixel units). […] Using MATLAB (Mathworks), various behavioural metrics including the coiler score were calculated, which is the percentage of frames with a circularity value >0.6. Speed was automatically computed from the ImageJ based WrmTrk plugin as the distance travelled by each animal (in pixels) over the amount of time that it was tracked (in seconds).56 Average speed was determined by calculating the weighted average of each tracked animal's speed within a single population of animals. On the day of the recording for dopamine or raclopride treatment, adult animals were washed for 1 minute in M9 buffer, treated in a solution containing either drug for 1 minute, and then placed onto fresh NGM plates without food, with a copper sulfate solution ring around the area of recording. […] Drug plates were prepared by adding each drug to LB medium with OP50 before spreading onto fresh NGM plates. The solvent used to dissolve each drug was used as vehicle control for the drug treatment experiments (M9 buffer for dopamine, distilled water for raclopride, DMSO for all other drugs).
After 72 hours of drug treatment, animals were randomly picked, washed, and recorded. A total of ten worms were recorded per population, and twelve populations were recorded for each of the four treatment groups. Locomotion was recorded for each population over a total of 1800 frames over three minutes. The animal's movement speed, area, and perimeter were automatically analyzed as previously described. Coiler score was calculated automatically using a ratio of the animal's area to perimeter, where a higher coiler score would represent a greater degree of α-synuclein-induced dopaminergic neuron dysfunction in vivo.

[2] = test system: control GFP C. elegans; test: Coiler score and locomotion of control GFP C. elegans; format: in vivo, Caenorhabditis elegans
Experimental: Animals were synchronized by isolating eggs using alkaline hypochlorite treatment and hatching overnight. Larvae were plated onto NGM agar plates with OP50 and grown for 4 days before recording locomotion. For individual C. elegans recordings, a single adult animal was randomly picked, washed for 1 to 2 minutes in M9 buffer, and then transferred to a fresh NGM plate without food for imaging. Video images were acquired (2 frames per second) for up to 6 minutes using a sCMOS camera (pco.edge, PCO) mounted on a stereomicroscope (Olympus MVX10 MacroView) controlled using the μManager software.^55 A total of 40 individual animals were imaged for each strain. For C. elegans population recordings, ten adult animals were randomly removed using an eyelash pick, washed for 1 minute in M9 buffer, and then transferred to a fresh NGM plate without food, with a ring of copper sulfate solution (150 mM) around the area of recording (a chemorepellent to keep the animals in the recording frame). Exploratory locomotion was recorded using a CCD camera (GX1920, Allied Vision) which was attached to a dissecting stereomicroscope (Leica M165C, 1.0× PlanApo lens). […] Using ImageJ, the displacement, perimeter, and area of each animal was calculated, from which a circularity value was computed using the following formula: circularity=4π(A/P^2), where A is the area of the animal's body and P is the perimeter of the animal's body (both expressed in arbitrary pixel units). […] Using MATLAB (Mathworks), various behavioural metrics including the coiler score were calculated, which is the percentage of frames with a circularity value >0.6. Speed was automatically computed from the ImageJ based WrmTrk plugin as the distance travelled by each animal (in pixels) over the amount of time that it was tracked (in seconds).56 Average speed was determined by calculating the weighted average of each tracked animal's speed within a single population of animals. […]
C. elegans were grown and maintained as previously described (Examples 1-6). […] After 72 hours of drug treatment, animals were randomly picked, washed, and recorded. […]

[3] = biological target: α-synuclein oligomers (Homo sapiens, UniProt P37840); test: Venus YFP protein-fragment complementation assay in rat primary cortical neurons; format: cell-based; settings: 10 μM, 72 hours
Experimental: Specifically, adeno-associated viral vectors (AAV) were used to co-express human α-synuclein tagged with the N- or C-terminal half of Venus yellow fluorescent protein (YFP) in rat cortical neurons.
Pregnant Sprague Dawley rats (E17) were purchased from Charles River. Embryos were surgically removed, and neurons were harvested in a sterile environment. Neurons were plated on poly-D-lysine coated glass coverslips at a density of 5×10^5 cells per well in Neurobasal-A medium, (Gibco, 10888022) supplemented with B27 (2%) (Gibco, 17504044), antibiotic-antimycotic (1%) (Gibco, 15240062), and Glutamax (1%) (Gibco, 35050061). Fifty percent media changes were performed every 3 days. […] Two days post isolation, neurons were co-transduced with AAV-V1 S and AAV-SV2 or transduced with AAV-Venus alone at a MOI of 3,000. […] Concentrations were selected to avoid neuron toxicity according to previous reports.^57-61 Drug-containing media was removed, and cells were washed 1 time with ice-cold PBS before being fixed with 4% PFA (Sigma) at room temperature for 10 minutes. Levels of α-synuclein oligomers were measured by YFP fluorescence. […] YFP fluorescence intensity was analysed automatically using Imaris imaging software (Oxford Instruments). […]

[4] = test system: full-length Gaussia princeps luciferase; test: Activity of full-length Gaussia luciferase alone in H4 cells; format: cell-based; settings: 10 μM, FIG. 14
Experimental: For controls in this assay, vehicle (i.e., DMSO), rapamycin, and bafilomycin A were used. Rapamycin, or sirolimus, is a small molecule that activates autophagy by inhibiting mTOR (mammalian target of rapamycin). […] To test this possibility, cells expressing α-synuclein were treated with each of the compounds and a cell permeable, resazurin-based assay was used to test for cell viability.
H4 neuroglioma cells (ATCC, HTB-148) were maintained in Dulbecco's Modified Eagle Medium plus high glucose, L-glutamine, and sodium pyruvate (ThermoFisher, 11995-065) with 10% heat-inactivated fetal bovine serum (ThermoFisher, 16140071) and 1% antibiotic-antimycotic cocktail (ThermoFisher, 15240062) at 37° C. and 5% CO2. DNA expression constructs encoding for full-length human α-synuclein fused to the N-terminal fragment of Gaussia princeps luciferase (syn-luc1), full-length human α-synuclein fused to the C-terminal fragment of Gaussia princeps luciferase (syn-luc2), and full-length Gaussia princeps luciferase were kindly provided by Dr. Pamela McLean, Mayo Clinic Jacksonville.^33 Cells were transiently co-transfected with syn-luc1 and syn-luc2 or transfected with luciferase alone using Superfect transfection reagent (Qiagen, 301305) according to the manufacturer's instructions. Twenty-four hours after transfection, cells were plated on a 96-well microplate at 60,000 cells per well. Twenty-four hours after plating, cells were treated with drugs or vehicle control. Following 24 hours of treatment, cells were washed 1 time with PBS and bioluminescence was measured using an automated CLARIOstar plate reader (Mandel, 430-0505). Cell permeable, native coelenterazine was used as the Gaussia luciferase substrate. Lyophilized coelenterazine (Nanolight, 303-500) was reconstituted in NanoFuel Solvent (Nanolight, 399-1), then diluted in PBS to 16.6 μg/mL, and dispensed per well to a final concentration of 20 μM). The bioluminescent signal generated by the luciferase enzyme was assessed at 470 nm over 5 seconds. Raw luminescence units were normalized to the DMSO vehicle control of each 96-well microplate. To assess cell viability, H4 neuroglioma cells were prepared and treated as described above and, 1 hour prior to viability analysis, cells were treated with PrestoBlue viability reagent (ThermoFisher, A13261) according to the manufacturer's instructions. Fluorescence was automatically measured using a CLARIOstar plate reader (Mandel, 430-0505) and then normalized to the fluorescence measure of the DMSO vehicle control.

What does the source list for `Nc1nc(NC2CC2)c2ncn([C@H]3C=C[C@@H](CO)C3)c2n1` [Abacavir, abacavir]?
locomotor speed ([1]; 100 μM of drug): No significant differences; effect on coiling / coiler score ([1]; 100 μM, 72 hr, vs DMSO vehicle): significantly reduced; speed of GFP worms ([2]; 100 μM): no differences; coiling / coiler score of control GFP animals ([2]; 100 μM of drug): no differences; YFP fluorescence compared with vehicle control [3]: significantly reduced; changes in the activity of full-length Gaussia luciferase alone [4]: No statistically significant changes
